# Data as given in paper PMC8391236, “Effect of Pterostilbene, a Natural Derivative of Resveratrol, in the Treatment of Colorectal Cancer through Top1/Tdp1-Mediated DNA Repair Pathway” (Cancers, 2021).
# Assays:
# [1] = tested on: subcutaneous CL187 xenograft; test: Subcutaneous CL187 xenograft model; format: in vivo, BABLc/nude mice
# Procedure: CL187 cell suspension was collected at 1 × 10^6 /mL, and 0.1 mL cell was inoculated into the right inguinal region of nude mice. The tumor was no metastasis. The diameter of the transplanted tumor in nude mice was measured with a vernier caliper. After 16-day inoculation (the tumor grew to 90 mm^3), the animals were randomly divided into 7 groups (6 mice per group). The drug was administered by intraperitoneal injection. Blank control group was injected with saline. […] According to the preliminary test results. […] Positive control group was injected with irinotecan (20 mg/kg) twice a week, During the experiment, the changes of body weight of nude mice were recorded, and the anti-tumor effect of the samples was dynamically investigated by measuring tumor diameter. On Day 31 post treatment, the nude mice were sacrificed, and the tumor blocks were removed surgically, weighed, and recorded.
# [2] = tested on: liver, kidney, lung, and paracancerous colon tissues; test: HE staining of organs of orthotopic xenograft mice; format: in vivo; settings: orthotopic xenograft nude mice
# Procedure: The mice were anaesthetized with 10% chloral hydrate and fixed on the operating table. After the abdomen of the mice was disinfected with iodine, a small section of the large intestine was squeezed out of the surgical opening. The 0.1 mL (per mouse) CL187 cell suspension (1 × 10^7 /mL) was inoculated into the colon wall of nude mice. After the inoculation, the large intestine was placed into the mouse abdominal cavity. After the wound was sutured, the mice were put into cages until they naturally woke up. After 10 days of inoculation, the animals were randomly divided into 4 groups (6 mice per group). Vector control group was intraperitoneally injected with 5% DMSO and 95% saline containing 30% HP-β-CD (i.p.). The drug dosage was designed according to the results of the previous pharmacokinetic experiment. Experimental Group 1 was intraperitoneal injected (i.p.) with PTE 100 mg/kg, and experiment Group 2 was intragastric administrated (i.g.) with PTE 500 mg/kg, once a day. The bioavailability of PTE was the same in the animals in the above regimens. Positive control group was injected with irinotecan, 20 mg/kg, twice a week. During the experiment, the changes of body weight of nude mice were recorded. After 21 days, the nude mice were sacrificed, the tumor blocks were removed surgically, weighed, and recorded. Tumor and organ tissues were paraffin-embedded and sectioned into […] after being fixed in 4% of paraformaldehyde solution for 24 h. The sections were deparaffinized and rehydrated before detection. For histological observation, tumor sections were stained with hematoxylin and eosin (HE), and then observed by an inverted microscopy (Olympus, Japan).
# [3] = tested on: Tdp1 mRNA; test: qPCR of Tdp1 mRNA in cells; format: cell-based, Human; settings: 6 h
# Procedure: CL187 cells were treated with different concentrations of RE and PTE for 6, 12, 24 h, collected, and added with TRIzol (Thermo Fisher Scientific, Waltham, MA, USA). RNA was precipitated by isopropyl alcohol and washed with 75% ethanol prepared from diethylpyrocarbonate (DEPC) water. The obtained total RNA was dissolved in DEPC water and reverse transcribed into cDNA by a Hifair Ⅲ 1st strand cDNA Synthesis SuperMix for qPCR Kit (Yeasen Biotech, Shanghai, China). The resultant cDNA was used as a template, and the primer sequences were (5′→3′): Top1: F: […], R: […]; Tdp1: F: ACCAGAGTTCAGGAAGAAG, R: TCATAGAGCAGCAGCATC. GAPDH: F: […], R: TCTTCCTCTTGTGCTCTTG. Transcription levels of Top1, Tdp1, and GAPDH genes were determined by qPCR. The qPCR was performed as follows: 95 °C for 10 min, 40 cycles of 95 °C for 10 s, and 60 °C for 30 s. The cycle threshold (Ct) value was determined, and the RQ value was calculated.
# [4] = tested on: siRNA-Top1 CL187 cells; test: Cell viability of Top1-silenced cells; format: cell-based; settings: Homo sapiens, 36 h, siRNA-Top1 CL187, 36 h
# [5] = target: Top1 in CL187 cells (Homo sapiens, UniProt P11387); test: Intracellular Top1 enzyme activity assay; format: cell-based; design: endogenous in cells; host or cells: CL187 cells (nuclear, mitochondrial and cytoplasmic extracts); settings: CL187 cells treated 6 h; CPT at 50 μM
# Procedure: CL187 cells were treated with different concentrations of drugs for 6 h. The supernatant was discarded, and the cells were collected. The extracts of cytoplasm, mitochondria, and nucleus were obtained by the same method as described in Section 2.4.7. The protein concentration of each extract was detected by BCA kit. Enzyme activity reaction was carried out by using 125 ng super helical DNA (pHOT-1) and cell extract. The protein concentration of the extract was guaranteed to be the same in each group. The mixture solution of the pHOT-1 and the cell extract was added into the reaction buffer and incubated for 30 min at 37 °C. The reaction was terminated with loading buffer. The agarose gel electrophoresis was performed, and the images were collected.
# [6] = 25 mg/kg i.p. once a day, Day 31
# [7] = 50 mg/kg i.p. once a day, Day 31
# [8] = 100 mg/kg i.p. once a day, Day 31
# [9] = 200 mg/kg i.p. once a day, Day 31
# Chain of Top1 in CL187 cells (P11387 2-765): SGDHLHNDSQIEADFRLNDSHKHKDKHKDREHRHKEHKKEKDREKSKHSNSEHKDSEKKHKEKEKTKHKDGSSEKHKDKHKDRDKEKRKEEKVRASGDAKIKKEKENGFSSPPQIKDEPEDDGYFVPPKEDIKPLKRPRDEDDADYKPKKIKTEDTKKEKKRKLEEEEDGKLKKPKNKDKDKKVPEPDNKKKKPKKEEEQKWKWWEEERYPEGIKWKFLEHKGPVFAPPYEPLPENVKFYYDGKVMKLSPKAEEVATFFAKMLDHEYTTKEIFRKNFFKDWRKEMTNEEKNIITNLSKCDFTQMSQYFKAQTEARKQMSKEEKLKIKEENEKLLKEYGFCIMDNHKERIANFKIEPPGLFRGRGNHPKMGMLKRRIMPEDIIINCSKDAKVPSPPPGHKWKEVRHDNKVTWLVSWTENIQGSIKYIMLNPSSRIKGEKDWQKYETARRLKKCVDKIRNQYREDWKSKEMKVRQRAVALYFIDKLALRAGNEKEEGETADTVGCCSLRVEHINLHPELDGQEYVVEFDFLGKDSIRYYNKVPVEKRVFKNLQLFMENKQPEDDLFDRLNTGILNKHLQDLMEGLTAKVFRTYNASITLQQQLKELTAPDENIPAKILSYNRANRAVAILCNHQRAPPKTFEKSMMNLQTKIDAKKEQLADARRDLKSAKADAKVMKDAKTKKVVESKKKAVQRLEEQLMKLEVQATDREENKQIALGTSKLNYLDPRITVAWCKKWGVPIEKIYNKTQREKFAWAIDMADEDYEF
compound,measurement,setting,value
"COc1cc(/C=C/c2ccc(O)cc2)cc(OC)c1 [PTE, 3,5-dimethoxy-4′-hydroxy-trans-stilbene]","Relative Tumor Proliferation Rate (T/C, %)",[1]; [6],53.53%
same,"Tumor Inhibitory Rate (TGI, %)",[1]; [6],54.24 ± 4.80%
same,Tumor Volume,[1]; [6],1.725 ± 0.203 ** cm^3
same,Tumor Weight,[1]; [6],1.60 ± 0.17 g
same,TGI,"[1]; 25 mg/kg, 31 days",54.24 ± 4.80%
same,"Relative Tumor Proliferation Rate (T/C, %)",[1]; [7],39.56%
same,Tumor Volume,[1]; [7],1.243 ± 0.189 *** cm^3
same,Tumor Weight,[1]; [7],1.39 ± 0.19 g
same,"Relative Tumor Proliferation Rate (T/C, %)",[1]; [8],24.20%
same,Tumor Volume,[1]; [8],0.779 ± 0.168 *** cm^3
same,Tumor Weight,[1]; [8],0.96 ± 0.11 g
same,"Relative Tumor Proliferation Rate (T/C, %)",[1]; [9],20.71%
same,Tumor Volume,[1]; [9],0.623 ± 0.158 *** cm^3
same,Tumor Weight,[1]; [9],0.73 ± 0.09 g
same,adverse reactions during the entire treatment process,"[1]; subcutaneous CL187 xenograft nude mice, CPT-11 20 mg/kg, PTE 25-200 mg/kg i.p.",did not have the above-mentioned adverse reactions
same,effect on lung inflammation (HE sections),[2],no significant effect on lung inflammation
same,damage to the liver (HE sections),[2]; treatment group vs solvent control,caused no additional damage
same,Tdp1 mRNA expression,[3]; Tdp1-over CL187 cells,did not change significantly
same,Tdp1 mRNA expression,[3]; siRNA-Top1 CL187 cells,inhibited without obvious trend
same,Tdp1 mRNA expression,[3]; wild-type CL187 cells,significantly inhibited
same,IC50,[4],49 ± 10.1 µM
same,Top1 enzyme activity in the nucleus,[5],significantly inhibited
